Assay results reported in patent publication US7148194B2, “Method to increase fibronectin” (Kimberly-Clark Worldwide, Inc., priority 2002, dated 2006).
Values joined by “and” are separate entries in the source; they are usually repeats but may differ in a detail not shown here. Equal values may be shown once.

What was measured:
Format in all cases: cell-based
[1] = tested on: fibronectin in human skin fibroblast cell line; assay: fibronectin in human skin fibroblasts, EIA; conditions: for Mean (fibronectin EIA, absorbance at 450 nm) / Median (fibronectin EIA, absorbance at 450 nm): 48 hours, n=2
Protocol: The fibroblast cells were first grown in a 96-well assay system using DMEM with 10% fetal bovine serum (FBS), both purchased from Sigma Chemical Co, St. Louis, Mo. […] Serum-free DMEM was used as a control. Cells were seeded into a 96 well plate at a concentration of 9×10^3 cells in 100 μl of DMEM containing 10% fetal bovine serum (FBS, Sigma Chemical Co., St. Louis, Mo.). The plate was incubated for 48 hours at 37° C. in a humidified 5% CO2 atmosphere. After incubation, the medium was aspirated and the wells were rinsed twice with 100 μl of serum-free DMEM. […] In addition, 100 μl of vehicle (serum-free DMEM) was added to 2 wells as a control. The plate was incubated for 48 hours at 37° C. in a humidified, 5% CO2 atmosphere.
The assay was performed using the recommended 100 μl of supernatant from each well of the 96-well plate. Standard buffer and stop solutions were freshly prepared before running the assay. A pre-antibody coated 96 well plate (provided with the kit) was used to transfer the test samples and the control. The plate was mixed, sealed, and incubated for 1 hour at 37° C. All the wells were washed three times (300ul) with washing buffer after removing sample solutions. 100ul of antibody-peroxidase conjugate solution was added into the wells. The plate was mixed, sealed, and incubated for one hour at 37° C. Solutions were removed and the wells were washed 3 times with washing buffer. All the wells were completely emptied at the end of washing from any liquid. 100 μl of substrate solution (hydrogen peroxide and tetramethylbenzidine in a buffered solution) was added to each well, and the plate was incubated at room temperature for 15 minutes. 100 μl of stop solution (freshly prepared 1N H2SO4) was added to each well in the same order as substrate. The plate was gently mixed and absorbance was read at 450 nm. Statistical analyses of data were performed using a one-way ANOVA.

[2] = tested on: normal human dermal fibroblasts (NHDF); assay: NHDF migration assay, 48-well chemotaxis chamber
Protocol: Normal, human dermal fibroblasts (NHDF) were obtained from Biowhittaker, (Walkersville, Md.) and propagated in T75 flasks in FBM media (500 mL, Biowhittaker) containing insulin, hFGF-b, GA-1000, and fetal bovine serum (10 mL) for up to 12 passages. For the migration assay, NHDF were washed once with 10 mL of Hank's buffered saline solution (HBSS). Three milliliters of trypsin (0.25%) in EDTA were added to the T75 flask for no more than five minutes to remove NHDF from the flask. NHDF in trypsin solution were added to 7 mL of FBM with no supplements added. NHDF were centrifuged for 5 minutes, and the supernatant was removed. NHDF were resuspended in 10 mL of FBM for counting. NHDF were centrifuged for another 5 minutes, and the supernatant was removed. NHDF were resuspended at 1×10^6 cells per mL in FBM without supplements. It was important to use FBM media only in migration assays because the complete media contains fibroblast growth factor and serum, both of which will trigger migration of fibroblasts.
Peptides were synthesized and purified by the Microchemical Facility at Emory University or by SigmaGenesis. All peptides were analyzed by mass spectrometry after HPLC to assess purity. Approximately 0.5–2.0 milligrams of peptide were used to make fresh stock solutions (5 mg/mL in PBS) for each migration assay. The peptide stock solutions in PBS were used to make more dilute solutions (1 mg/mL, 100 μg/mL, 10 μg/mL, 1 μg/mL, 100 ng/mL, 10 ng/mL) in FBM (without supplements) for the migration assays.
Polyvinylpyrrolidone-free polycarbonate membranes with […] pores (Neuroprobe, Inc., Gaithersburg, Md.) were washed with 90% ethanol for 15 minutes and rinsed four times with deionized water. Membranes were then placed into a glass dish containing an aqueous solution of 5 μg/mL gelatin. The glass dish was placed in to a water bath at about 90° C. for one hour. Membranes were removed from the gelatin solution and were allowed to dry for one hour in the 37° C. incubator.
A 48-well chemotaxis chamber (Neuroprobe, Inc., Gaithersburg, Md.) (see FIG. 20) was used for the migration assays. Twenty-eight μL of each test solution were added to the bottom wells of the chamber in quadruplicate. A gelatin-treated membrane was placed carefully on top of the bottom wells. The gasket and top part of chamber were then placed carefully on top of the membrane. The apparatus was tightened using six thumbscrews. A solution of NHDF containing an estimated cell density (2×10^5 cells per mL) was made by adding 320 μL of the 1×10^6 cells per mL solution to 1.28 mL of FBM (no supplements). Fifty microliters of the 2×10^5 cells per mL NHDF solution were added to the top part of each well in the chamber. The chamber was placed in the incubator at 37° C./5% CO2 for three hours. The chamber was removed, the thumbscrews were removed, and the chamber was turned upside down on a paper towel. […] The membrane was carefully removed. […] The membrane was fixed with methanol and stained using the Diff-Quik Staining Solutions I and II. The nuclei of NHDF are stained purple. The membrane was mounted on a glass slide using cedarwood immersion oil and a cover slip. […] The average number of migrated NHDF in the negative control was subtracted from the experimental (peptide) data and positive control data.

[3] = tested on: normal human dermal fibroblasts; assay: fibroblast proliferation, Cell Titer 96, OD 490 nm; parameters: fibroblast cell density versus control: dose or concentration left out as unconfirmed; conditions: 28 hours
Protocol: A human skin fibroblast cell line (Clonetics, Walkersville, Md., normal human dermal fibroblasts, neonatal, catalog number CC-2509) was tested to ascertain whether exposure to a peptide would stimulate cellular proliferation. […] Plates were incubated for 24 hours at 37° C. in a humidified 5% CO2 atmosphere. After incubation, the medium was aspirated and the wells were rinsed twice with 100 μl of serum-free DMEM. […] In addition, 100 μl of vehicle (serum-free DMEM) was added to 10 wells as control. All wells were incubated for 28 hours at 37° C. in a humidified, 5% CO2 atmosphere. After incubation, 20 μl of Cell Titer 96 Aqueous One Solution was added to all wells. The plates were swirled gently and placed back in the incubator for 45 minutes and spectrophotometric absorbance was read at 490 nm. Results were analyzed statistically using one-way ANOVA.

Question: Which “Mean (fibronectin EIA, absorbance at 450 nm)” value (shortened to “Mean”) ([1]; 1×10^−4 M) does the source give for CC(C)[C@H](NC(=O)[C@H](CC(=O)O)NC(=O)[C@@H]1CCCN1C(=O)[C@H](CC(N)=O)NC(=O)CNC(=O)[C@H](CS)NC(=O)[C@H](CCCNC(=N)N)NC(=O)[C@@H]1CCCN1)C(=O)N[C@@H](C)C(=O)N[C@@H](CC(N)=O)C(=O)N[C@@H](Cc1ccc(O)cc1)C(=O)N[C@@H](CC(N)=O)C(=O)N[C@@H](Cc1ccccc1)C(=O)N[C@@H](Cc1ccccc1)C(=O)N1CCC[C@H]1C(=O)N[C@@H](CCCNC(=N)N)C(=O)N[C@@H](CCCCN)C(=O)N1CCC[C@H]1C(=O)N[C@@H](CCCCN)C(=O)O [Peptide 19-mer] here?
Answer: The value was 0.4045.

Question: And the “Median (fibronectin EIA, absorbance at 450 nm)” value (from here on “Median”) ([1]; 1×10^−4 M)?
Answer: Its value is 0.4045.

Question: And the “Mean” value ([1]; 1×10^−5 M)?
Answer: Its value is 0.2400.

Question: What about the “Median” value ([1]; 1×10^−5 M) of the same compound?
Answer: Its value is 0.2400.

Question: And the “Mean” value ([1]; 1×10^−6 M)?
Answer: Its value is 0.1895.

Question: What about the “Median” value ([1]; 1×10^−6 M) of the same compound?
Answer: The value was 0.1895.

Question: What about the “effect on fibronectin stimulation compared with control and 10^−6 M” value ([1]; 10^−4 M) of the same compound?
Answer: Its value is “more than doubled”.

Question: And the “amount of fibronectin versus control” value ([1]; all concentrations tested (1×10^−4, 1×10^−5, 1×10^−6 M))?
Answer: The value was “increased the amount of fibronectin present”.

Question: What about the “NHDF migration, percent of the plasma fibronectin positive control” value (shortened to “NHDF migration, percent”) ([2]; 100 μg/mL peptide) of the same compound?
Answer: Its value is 46±3% and 46%±3%.

Question: And the “NHDF migration, percent” value ([2]; 1000 μg/mL peptide)?
Answer: The value was 55±3% and 55%±3%.

Question: And the “NHDF migration, percent” value ([2]; concentrations below 100 μg/mL)?
Answer: Its value is “about 20%”.

Question: And the “fibroblast cell growth versus control” value ([3]; 1×10^−4 M, P<0.001)?
Answer: The value was “even greater cell growth”.

Question: And the “fibroblast cell proliferation versus control” value ([3]; 1×10^−6 M, P<0.05)?
Answer: The value was “a small amount of cell proliferation”.

Question: And the “fibroblast cell density versus control” value ([3]; (19mer5), P<0.01)?
Answer: Its value is “significantly greater cell density”.
